“Also recorded” adds a separate entry of the source.
Assays:
[1] = system: sAPPα; assay: sAPPα HTRF assay in primary cortical neurons conditioned medium; format: cell-based, mouse; settings: primary neurons from transgenic mice expressing wild type human APP (FIG. 8)
Procedure: (§1) Four types of biological samples were investigated using the following procedure: human CSF, human blood serum, culture medium of neuroblastoma SH-SY5Y cell line treated with different drugs (for instance the PKC activator PdBu which stimulate the ADAM 17 alpha secretase activity), or conditioned culture medium from primary mouse cortical neurons.
(§2) All samples and calibrator were treated with 10 mM DTT on ice, during 30 min. In a 384-well low volume (20 μl) white plate, reagents were distributed in the following order: • 5 μl 150 mM phosphate buffer pH 7.0, 0.2% BSA. • 5 μl sample or calibrator, treated with DTT and diluted. • 5 μl MAB348 antibody, cryptate conjugate, diluted 1/250 with 50 mM phosphate buffer pH 7.0, 0.4M KF. • 5 μl 2B3 antibody, D2 conjugate, diluted 1/250 with 50 mM phosphate buffer pH 7.0, 0.4M KF.
Validation of the sAPPα HTRF Assay in Primary Cortical Neurons Conditioned Medium. (FIG. 8)

[2] = system: sAPPα; assay: sAPPα HTRF assay in SH-SY5Y neuroblastoma cells conditioned medium; format: cell-based, human; settings: for effect on PdBu-induced increase of sAPPα secretion: PKC activated by PdBu (FIG. 7)
Procedure: as §1, §2
The plate covered with a plate sealer was centrifuged (1000 g 1 min) and incubated overnight, at room temperature.
The plate sealer was removed, and the plate read on a compatible HTRF reader (Envision, Perkin Elmer), at […].
Results are calculated from 665 nm/620 nm ratio and expressed in delta F: […]
Delta F is proportional to the sAPPα concentration; Delta F obtained for samples can be reported on the calibration curve to deduce respective sAPPα concentration.
Different samples were submitted to the sAPPα HTRF assay with or without DTT treatment.
Numerous studies have shown that the sAPPα secretion is regulated by some intracellular signalisation pathway involving PKC and that the α-secretase responsible for this secretion is a disintegrin-metalloproteinase (ADAM 17).

## O=C(O[C@@H]1Cc2c(O)cc(O)cc2O[C@@H]1c1cc(O)c(O)c(O)c1)c1cc(O)c(O)c(O)c1 [EGCG]
[1]
  effect on sAPP alpha in the medium: increase of sAPP alpha

## CN(C)CCCn1cc(C2=C(c3c[nH]c4ccccc34)C(=O)NC2=O)c2ccccc21 [GF 109203]
[2]; SH-SY5Y conditioned medium
  effect on PdBu-induced increase of sAPPα secretion: abolished

## CCCC(=O)O[C@@H]1[C@@H](C)[C@@]2(O)[C@@H](C=C(CO)C[C@]3(O)C(=O)C(C)=C[C@@H]23)[C@@H]2C(C)(C)[C@]12OC(=O)CCC [PdBu]
[2]; SH-SY5Y conditioned medium, samples pre-treated with DTT (FIG. 7)
  effect on amount of sAPPα / sAPPα secretion: activates the production of sAPPα; also recorded: increased
[2]; conditioned medium of SH-SY5Y neuroblastoma cell line, no DTT pre-treatment, n=8
  sAPP alpha, Without DTT: 3.4 ± 0.4 ng/mL
[2]; conditioned medium of SH-SY5Y neuroblastoma cell line, sample pre-treated with 10 mM DTT, n=8
  sAPP alpha, With DTT: 59.1 ± 2.8 ng/mL
[2]; conditioned medium, inter assay, 16 samples
  sAPPα Mean, inter assay reproducibility: 61.4 ng/mL
[2]; conditioned medium, intra assay, 8 samples
  sAPPα Mean, intra assay reproducibility: 59.1 ng/mL

## CC(C)C[C@H](CC(=O)NO)C(=O)N[C@@H](Cc1ccc2ccccc2c1)C(=O)N[C@@H](C)C(N)=O [TAPI 0]
[2]; SH-SY5Y conditioned medium
  effect on PdBu-induced increase of sAPPα secretion: abolished

## PACAP 1-27
[1]
  effect on sAPP alpha in the medium: increase of sAPP alpha
